Experimental data from patent EP0171005A2, “Xanthinylmethylthiazolidines, process for their preparation and pharmaceutical compositions containing them” (BOEHRINGER BIOCHEMIA ROBIN S.p.A., priority 1984, dated 1986).
Where two headings read alike, the source gives them in different places.

How the values were obtained:
[1] = Acute toxicity, LD50 in mice; settings: mouse, in vivo
Text: LD50 values above 1 g/kg are generally determined both after oral and intraperitoneal administration of the compounds of the invention.

[2] = tested on: male New Zealand white rabbits; assay: Mucus regulating properties in bronchitic rabbits (5% H2SO3 aerosol), sputum parameters as AUC; assay type: in vivo; settings: for Fucose (mg/ml), AUC as a 100% compared to bronchitic controls / Galactose (mg/ml), AUC as a 100% compared to bronchitic controls / Mucus produc-tion (ml/kg), AUC as a 100% compared to bronchitic controls / Phospho-lipids (mg/ml), AUC as a 100% compared to bronchitic controls / Protein (mg/ml), AUC as a 100% compared to bronchitic controls / Sialic acid (mg/ml), AUC as a 100% compared to bronchitic controls / Viscosity (cps), AUC as a 100% compared to bronchitic controls: Table 2, oral, equimolecular amounts to S-carboxymethyl cysteine
Description: The mucus regulating properties of the compounds of the invention are investigated "in vivo" by means of experiments carried out on male New Zealand white rabbits. The animals are submitted to inhalation of a 5% H2S03 aqueous solution by aerosol (exposition of 3 hours a day for 3 alternate days), to induce a chronic bronchial inflammatory disease which causes a production of pathological sputum in the bronchial tree.
Aim of the experiments is to evaluate modifications of selective parameters such as dry weight of the sputum, viscosity, content in proteins, phospholipids, galactose, sialic acid and fucose, induced in this pathological sputum by pharmacological treatment with the compounds of the invention.
To this purpose, the sputum produced in the bronchial tree is collected daily, through a "T" shaped glass cannula, inserted in the trachea, before and after oral twice a day (9.00 a.m. and 4.00 p.m.) treatment with one of the compounds of the invention.
The schedule treatment procedure is shown in the following Schema 1: [drawing 23] where 0 indicates the day of implantation of the tracheal cannula; -7-5-3 indicate the days of H2S03 treatment (H); 1,2,3,4 indicate the days of oral administration of the compounds of the invention (T) and the time of mucus collection (M).
The mucus collected in day 1 in the morning is considered as a blank; 7 indicates the day of the animal sacrifice after the mucus collection.
The sputum samples are stored in the freezer (-20°C) until the investigation of biological and rheological parameters is carried out.
The samples are investigated for relative viscosity, measured at 37°C with a Brookfield viscometer (model LT VD) equipped with a 1,565° cone-plate, and aliquoted for biochemical analysis of protein, phospholipids, galactose, sialic acid and fucose contents. Dry weight of the mucus is also determined. For each parameter, cumulative data are referred to a seven days period after the beginning of the treatment and they are extrapolated using the AUC method (area under curve) calculated by the trapezoidal rule. Finally the data are compared with data obtained from controls (vehicle treatment), non bronchitic rabbits (vehicle treatment) and positive controls bronchitis rabbits treated with 0.153 M 2-carboxymethyl cysteine.

[3] = tested on: anhaestetized guinea pigs; assay: Konzett-Ressler test, resolution of histamine-induced bronchospasm; assay type: in vivo; settings: intrajugular administration; bronchospasm induced by i.v. histamine
[4] = tested on: trachea smooth muscle strips of Guinea pig contracted by methaco- line; assay: Relaxation in vitro of trachea smooth muscle strips contracted by methacholine; settings: Cavia porcellus, read-out: ED50 (the source's name)
Text: In particular these latter compounds of the invention are also characterized by pronounced ability to induce relaxation of the bronchial and tracheal smooth muscle.

[5] = tested on: conscious mongrel dogs; assay: Dog cough test (Stefko procedure, cough induced by electric stimulation of the trachea); assay type: in vivo
Description: (§1) The techniques described by Charlier et al. (Arch. Int. Pharmacodyn. 134, 306, 1961) and by Stefko et al. (J. Pharm. Exp. Therap., 108, 217, 1953), adapted with minor modifications, are used to investigate the antitussive properties of the compounds of the invention. Codeine phosphate is used as positive reference compound.
In the Stefko procedure, conscious mongrel dogs (15+3 kg body weight) are used; the compounds of the invention are tested for their ability to inhibit cough induced by electric stimulation.
Under general anesthesia, two insulated nichrome wires (0.4 mm diameter) are surgically implanted into the submucosa of the trachea.
About two days later, the dogs are placed in a sling and the exteriorized electrodes are connected to an electric stimulating device (such as Grass S 48 Mod.).
The stimulation parameters such as: delay 0.01 msec, duration 1 msec, frequency 30 Hz, are used.
An electrical stimulus of 1 sec is applied 10 times at 5 sec intervals in order to determine the minimum voltage necessary for eliciting reproducible cough responses. Then, tussive responses to the electrical stimuli are registered at 15, 30, 60, 90, 120, 150, 180, 240, 300 and 360 minutes after oral administration of the compounds of the invention.
The tussive responses are scored as follows: • 1: no response; 2: sigh or exaggerated expiration; • 3: marked cough; 4: one marked cough and one exaggerated expiration; 5: two marked coughs.
Six dogs are employed for each determination and the mean activity is calculated.
The inhibition percent of the cough response and the duration of activity are compared with codeine.

[6] = tested on: Guinea pigs; assay: Guinea pig cough test (Charlier procedure, citric acid aerosol); assay type: in vivo; settings: for ED50: Cavia porcellus, ip, 1 h; for delay of first cough stroke: delay corresponding to the ED50, i.p.
Description: as §1
According to the Charlier procedure, Guinea pigs are exposed to a citric acid aerosol (7.5%) and cough is recorded 60 minutes after the antitussive treatment by i.p. route. Male animals of 300-400 g body weight are used in all the experiments. Guinea pigs are placed in a perspex box (20x30x30 cm) connected to an aerosol compressor; the animals are subjected to a citric acid saturated atmosphere, 60 minutes after the i.p. injection of a compound of the invention (0.1 and 0.3 M solutions; 1 ml/kg).
The total number of cough strokes and the delay of the first cough are recorded during the first five minutes.
Five guinea pigs are used for each dose level and the results are compared with controls (vehicle treatment) and codeine phosphate 0.07 M solution (standard treatment).
ED and the corresponding delay of first cough stroke are calculated.
The data obtained by i.p. administration are confirmed by oral administration.

[7] = Table 1, 0.153 M, oral twice a day, seven days period

Cn1c(=O)c2c(ncn2CC2NCCS2)n(C)c1=O (centres unmarked) [2-[(1',3'-dimethylxanthin-7'-yl)methyl]thiazolidine]
LD50 ([1]; ip, read-out: LD 50 (i.p.)): 480 mg/kg
LD50 ([1]; oral, read-out: LD 50 (os)): 600 mg/kg
Fucose (mg/ml), AUC as a 100% compared to bronchitic controls [2]: 66%
Galactose (mg/ml), AUC as a 100% compared to bronchitic controls [2]: 5%
Mucus produc-tion (ml/kg), AUC as a 100% compared to bronchitic controls [2]: 80%
Phospho-lipids (mg/ml), AUC as a 100% compared to bronchitic controls [2]: 30%
Protein (mg/ml), AUC as a 100% compared to bronchitic controls [2]: 58%
Sialic acid (mg/ml), AUC as a 100% compared to bronchitic controls [2]: 101%
Viscosity (cps), AUC as a 100% compared to bronchitic controls [2]: 16%

COc1cc(C=CC(=O)N2CCSC2Cn2cnc3c2c(=O)n(C)c(=O)n3C)cc(CN2CCOCC2)c1O (centres unmarked) [2-LTl',3'-dimethyl-xanthin-7'-yl)methyl]-3-[(3-morpholinylmethyl-4'-hydroxy-5'-methoxy)cinnamoyi7thiazolidine]
activity compared with aminophylline in the resolution of bronchospasm [3]: at least four times more active than aminophylline
EC50 [4]: 190 µM

Cn1c(=O)c2c(ncn2CC2NC(C(=O)O)CS2)n(C)c1=O (centres unmarked) [2-[(1',3'-dimethylxanthin-7'-yl)methyl]thiazolidine-4-carboxylic acid]
duration of action compared with codeine ([5]; 20 mg/kg, dogs): favourably compares with codeine for its duration of action
inhibition at 20 mg/kg ([5]; Canis lupus familiaris, 20 mg/kg, oral, read-out: inhibition of the cough stimulus): 32%
ED50 ([6]; citric acid aerosol 7.5%, cough recorded 60 minutes after i.p. treatment, read-out: ED50): 62 mg/kg
delay of first cough stroke [6]: 213%
duration of action compared with codeine ([6]; guinea pig cough test): more favourable duration of action in comparison to codeine
Fucose (mg/ml), AUC as a 100% compared to bronchitic controls [2]: 77%
Galactose (mg/ml), AUC as a 100% compared to bronchitic controls [2]: 82%
Mucus produc-tion (ml/kg), AUC as a 100% compared to bronchitic controls [2]: 128%
Phospho-lipids (mg/ml), AUC as a 100% compared to bronchitic controls [2]: 78%
Protein (mg/ml), AUC as a 100% compared to bronchitic controls [2]: 80%
Sialic acid (mg/ml), AUC as a 100% compared to bronchitic controls [2]: 81%
Viscosity (cps), AUC as a 100% compared to bronchitic controls [2]: 55%

N[C@@H](CSCC(=O)O)C(=O)O [S-carboxy-methyl cy steine, S-carboxymethyl cysteine, reference compound]
Fucose mg/ml, AUC as a % compared to bronchitis controls [2, 7]: 56%
Galactose mg/ml, AUC as a % compared to bronchitis controls [2, 7]: 64%
Mucus production ml/kg, AUC as a % compared to bronchitis controls [2, 7]: 97%
Phospholipids mg/ml, AUC as a % compared to bronchitis controls [2, 7]: 108%
Protein mg/ml, AUC as a % compared to bronchitis controls [2, 7]: 105%
Sialic acid mg/ml, AUC as a % compared to bronchitis controls [2, 7]: 60%
Viscosity (cps), AUC as a % compared to bronchitis controls [2, 7]: 52%

Cn1c(=O)c2c(ncn2CC(O)CO)n(C)c1=O (centres unmarked) [dihydroxypropyltheophylline, reference compound]
EC50 ([4]; reference, unit inferred): 76 µM

COc1ccc2c3c1O[C@H]1[C@@H](O)C=C[C@H]4[C@@H](C2)N(C)CC[C@@]341 [codeine phosphate, reference compound]
duration of activity ([5]; 8 mg/kg, oral): 2 to 4 h
inhibition at 8 mg/kg ([5]; Canis lupus familiaris, po, read-out: inhibition of the cough stimulus): 52%
ED50 [6]: ~23 mg/kg
delay of first cough stroke [6]: 170%
